This passage reports Activity results from ChEMBL document CHEMBL1150976, “The selectivity of protein kinase inhibitors: a further update” (Biochem J, 2007).

Assay [1] deals with Mitogen-activated protein kinase 9 (Homo sapiens, UniProt P45984). Put plainly: Percentage JNK2 activity remaining in the presence of 0.1uM inhibitor.
In assay [2] the target is T1, Serine/threonine-protein kinase Chk1 (Homo sapiens) (UniProt O14757).
T1 sequence (whole entry): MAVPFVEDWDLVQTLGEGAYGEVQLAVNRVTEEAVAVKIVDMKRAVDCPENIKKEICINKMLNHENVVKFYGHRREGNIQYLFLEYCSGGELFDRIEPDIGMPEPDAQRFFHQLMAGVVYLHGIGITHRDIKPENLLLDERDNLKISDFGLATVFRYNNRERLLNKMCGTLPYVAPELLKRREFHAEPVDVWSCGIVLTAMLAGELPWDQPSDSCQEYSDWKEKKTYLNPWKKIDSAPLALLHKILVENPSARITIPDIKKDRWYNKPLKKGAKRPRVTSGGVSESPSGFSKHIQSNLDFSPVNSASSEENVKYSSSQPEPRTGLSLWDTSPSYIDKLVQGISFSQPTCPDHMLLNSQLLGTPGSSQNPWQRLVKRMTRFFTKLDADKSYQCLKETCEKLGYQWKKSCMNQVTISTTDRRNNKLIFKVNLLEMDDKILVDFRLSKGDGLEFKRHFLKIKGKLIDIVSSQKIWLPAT
Put plainly: Percentage CHK1 activity remaining in the presence of 0.1uM inhibitor.

The target of assay [3] is Mitogen-activated protein kinase 3 (Homo sapiens) (UniProt P27361). Put plainly: Percentage ERK1 activity remaining in the presence of 0.1uM inhibitor.
The target in assay [4] is Aurora kinase B (Homo sapiens, UniProt Q96GD4). Put plainly: Percentage Aurora B activity remaining in the presence of 0.1uM inhibitor.
For assay [5], the target named is Serine/threonine-protein kinase PLK1 (Homo sapiens, UniProt P53350). Put plainly: Percentage PLK1 activity remaining in the presence of 0.1uM inhibitor.
The target in assay [6] is T2, Serine/threonine-protein kinase Sgk1 (Homo sapiens) (UniProt O00141).
T2 sequence (whole entry): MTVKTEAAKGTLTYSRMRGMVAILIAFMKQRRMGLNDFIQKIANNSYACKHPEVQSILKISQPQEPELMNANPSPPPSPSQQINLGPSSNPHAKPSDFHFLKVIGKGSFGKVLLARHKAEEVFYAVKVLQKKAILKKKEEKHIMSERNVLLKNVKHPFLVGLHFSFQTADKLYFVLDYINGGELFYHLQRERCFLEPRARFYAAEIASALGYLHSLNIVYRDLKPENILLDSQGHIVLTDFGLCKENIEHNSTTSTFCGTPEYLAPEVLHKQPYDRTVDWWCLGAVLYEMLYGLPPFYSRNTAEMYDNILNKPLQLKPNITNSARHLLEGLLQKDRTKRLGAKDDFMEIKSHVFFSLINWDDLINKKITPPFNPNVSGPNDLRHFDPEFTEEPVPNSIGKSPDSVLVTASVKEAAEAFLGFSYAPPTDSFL
Put plainly: Percentage SGK1 activity remaining in the presence of 0.1uM inhibitor.

For assay [7], the target named is T3, Mitogen-activated protein kinase 13 (Homo sapiens) (UniProt O15264).
T3 sequence (whole entry): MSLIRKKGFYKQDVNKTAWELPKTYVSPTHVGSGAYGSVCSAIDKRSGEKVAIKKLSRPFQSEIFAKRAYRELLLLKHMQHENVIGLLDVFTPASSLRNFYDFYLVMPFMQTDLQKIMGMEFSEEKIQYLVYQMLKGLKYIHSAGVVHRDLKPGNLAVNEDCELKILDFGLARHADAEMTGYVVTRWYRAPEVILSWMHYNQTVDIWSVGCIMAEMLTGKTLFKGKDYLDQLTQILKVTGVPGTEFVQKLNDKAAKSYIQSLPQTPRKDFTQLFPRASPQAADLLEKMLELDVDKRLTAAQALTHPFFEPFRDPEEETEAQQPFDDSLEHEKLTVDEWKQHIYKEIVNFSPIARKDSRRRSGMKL
Put plainly: Percentage p38delta activity remaining in the presence of 0.1uM inhibitor.

The target of assay [8] is T4, Serine/threonine-protein kinase Nek2 (Homo sapiens) (UniProt P51955).
T4 sequence (whole entry): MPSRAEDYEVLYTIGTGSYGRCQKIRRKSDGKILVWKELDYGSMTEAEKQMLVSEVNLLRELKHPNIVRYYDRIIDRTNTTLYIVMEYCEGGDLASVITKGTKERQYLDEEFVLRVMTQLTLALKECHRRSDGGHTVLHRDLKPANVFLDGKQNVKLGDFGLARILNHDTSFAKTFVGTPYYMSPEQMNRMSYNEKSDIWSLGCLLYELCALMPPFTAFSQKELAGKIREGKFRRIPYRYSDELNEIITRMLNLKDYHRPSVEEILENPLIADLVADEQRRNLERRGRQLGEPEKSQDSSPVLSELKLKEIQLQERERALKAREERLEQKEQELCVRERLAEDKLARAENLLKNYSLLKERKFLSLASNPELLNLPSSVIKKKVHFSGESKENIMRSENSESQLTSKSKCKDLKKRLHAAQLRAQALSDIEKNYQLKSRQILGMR
Put plainly: Percentage NEK2a activity remaining in the presence of 0.1uM inhibitor.

Assay [9] addresses Serine/threonine-protein kinase Nek6 (Homo sapiens) (UniProt Q9HC98). Put plainly: Percentage NEK6 activity remaining in the presence of 0.1uM inhibitor.
For assay [10], the target named is T5, Dual specificity tyrosine-phosphorylation-regulated kinase 2 (Homo sapiens) (UniProt Q92630).
T5 sequence (whole entry): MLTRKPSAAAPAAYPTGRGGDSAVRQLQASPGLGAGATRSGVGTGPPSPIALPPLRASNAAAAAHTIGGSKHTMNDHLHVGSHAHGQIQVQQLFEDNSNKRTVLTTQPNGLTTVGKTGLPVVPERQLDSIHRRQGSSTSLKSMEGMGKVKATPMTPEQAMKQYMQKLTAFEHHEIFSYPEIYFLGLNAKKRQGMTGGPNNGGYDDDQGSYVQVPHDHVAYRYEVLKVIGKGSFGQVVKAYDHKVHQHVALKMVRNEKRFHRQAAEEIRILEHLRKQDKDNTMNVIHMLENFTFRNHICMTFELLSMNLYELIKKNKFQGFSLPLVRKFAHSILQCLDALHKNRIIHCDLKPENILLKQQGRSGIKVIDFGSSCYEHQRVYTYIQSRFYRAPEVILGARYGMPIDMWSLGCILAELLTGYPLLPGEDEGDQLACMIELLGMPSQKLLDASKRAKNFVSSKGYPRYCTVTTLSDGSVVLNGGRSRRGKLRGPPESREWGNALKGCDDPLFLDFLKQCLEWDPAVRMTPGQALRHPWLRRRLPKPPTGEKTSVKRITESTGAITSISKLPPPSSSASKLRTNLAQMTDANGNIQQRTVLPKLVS
Put plainly: Percentage DYRK2 activity remaining in the presence of 0.1uM inhibitor.

The target of assay [11] is Dual specificity mitogen-activated protein kinase kinase 1 (Homo sapiens) (UniProt Q02750). Put plainly: Percentage MKK1 activity remaining in the presence of 0.1uM inhibitor.
Sequence of Dual specificity mitogen-activated protein kinase kinase 1 (Homo sapiens) (Q02750 whole entry): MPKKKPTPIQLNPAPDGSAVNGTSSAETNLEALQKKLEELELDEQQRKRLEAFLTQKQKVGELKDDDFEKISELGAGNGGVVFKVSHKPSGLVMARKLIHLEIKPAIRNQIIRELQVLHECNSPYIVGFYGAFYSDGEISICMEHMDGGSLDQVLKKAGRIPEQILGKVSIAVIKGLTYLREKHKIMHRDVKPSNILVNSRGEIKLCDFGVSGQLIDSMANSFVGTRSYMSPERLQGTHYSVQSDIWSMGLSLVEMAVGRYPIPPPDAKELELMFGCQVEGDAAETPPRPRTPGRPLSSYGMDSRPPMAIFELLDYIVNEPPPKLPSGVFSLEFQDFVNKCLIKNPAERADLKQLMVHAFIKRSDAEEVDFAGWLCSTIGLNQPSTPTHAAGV

Sequence of Serine/threonine-protein kinase Nek6 (Homo sapiens) (Q9HC98 whole entry): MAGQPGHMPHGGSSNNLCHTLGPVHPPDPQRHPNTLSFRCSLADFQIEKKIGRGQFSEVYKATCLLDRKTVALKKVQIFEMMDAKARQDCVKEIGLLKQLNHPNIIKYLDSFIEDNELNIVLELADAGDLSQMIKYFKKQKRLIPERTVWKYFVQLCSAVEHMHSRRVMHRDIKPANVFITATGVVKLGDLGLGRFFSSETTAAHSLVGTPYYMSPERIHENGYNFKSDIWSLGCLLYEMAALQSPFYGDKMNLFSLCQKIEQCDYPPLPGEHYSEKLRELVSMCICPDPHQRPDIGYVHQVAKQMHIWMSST
Sequence of Serine/threonine-protein kinase PLK1 (P53350 whole entry): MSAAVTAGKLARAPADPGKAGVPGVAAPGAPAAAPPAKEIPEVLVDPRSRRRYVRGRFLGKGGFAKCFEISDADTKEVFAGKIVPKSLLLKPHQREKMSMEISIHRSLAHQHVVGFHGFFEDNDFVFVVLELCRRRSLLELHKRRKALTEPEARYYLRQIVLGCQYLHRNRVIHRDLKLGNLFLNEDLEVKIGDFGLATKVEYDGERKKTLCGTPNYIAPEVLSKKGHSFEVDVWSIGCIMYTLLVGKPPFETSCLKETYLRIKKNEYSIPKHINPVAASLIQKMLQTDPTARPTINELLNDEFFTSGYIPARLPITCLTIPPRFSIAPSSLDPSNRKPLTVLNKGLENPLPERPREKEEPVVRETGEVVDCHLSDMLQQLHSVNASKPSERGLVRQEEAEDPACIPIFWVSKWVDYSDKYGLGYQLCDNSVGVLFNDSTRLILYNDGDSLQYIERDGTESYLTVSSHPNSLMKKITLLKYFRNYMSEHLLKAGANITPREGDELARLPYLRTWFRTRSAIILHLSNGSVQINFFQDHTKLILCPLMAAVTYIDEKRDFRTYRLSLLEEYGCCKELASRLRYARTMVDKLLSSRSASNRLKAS
Sequence of Mitogen-activated protein kinase 3 (Homo sapiens) (P27361 whole entry): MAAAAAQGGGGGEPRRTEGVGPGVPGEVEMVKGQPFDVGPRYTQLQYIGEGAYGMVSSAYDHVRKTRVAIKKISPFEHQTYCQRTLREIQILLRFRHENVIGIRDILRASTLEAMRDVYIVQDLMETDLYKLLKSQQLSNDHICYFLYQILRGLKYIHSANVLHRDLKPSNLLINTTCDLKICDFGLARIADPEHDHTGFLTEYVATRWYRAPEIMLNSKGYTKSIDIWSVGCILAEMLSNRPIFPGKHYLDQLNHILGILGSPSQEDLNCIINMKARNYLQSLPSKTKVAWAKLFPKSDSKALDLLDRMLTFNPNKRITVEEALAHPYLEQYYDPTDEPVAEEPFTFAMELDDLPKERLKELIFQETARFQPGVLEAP
Sequence of Aurora kinase B (Q96GD4 whole entry): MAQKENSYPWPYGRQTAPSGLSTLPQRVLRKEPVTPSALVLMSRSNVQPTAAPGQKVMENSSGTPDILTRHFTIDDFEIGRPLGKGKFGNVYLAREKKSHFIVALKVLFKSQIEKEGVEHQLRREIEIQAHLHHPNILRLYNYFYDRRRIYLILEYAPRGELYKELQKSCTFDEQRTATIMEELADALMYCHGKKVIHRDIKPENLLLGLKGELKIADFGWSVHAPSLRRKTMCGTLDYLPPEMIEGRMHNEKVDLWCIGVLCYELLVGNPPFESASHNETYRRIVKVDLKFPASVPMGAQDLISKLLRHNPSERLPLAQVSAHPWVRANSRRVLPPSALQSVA
Sequence of Mitogen-activated protein kinase 9 (P45984 whole entry, looked up): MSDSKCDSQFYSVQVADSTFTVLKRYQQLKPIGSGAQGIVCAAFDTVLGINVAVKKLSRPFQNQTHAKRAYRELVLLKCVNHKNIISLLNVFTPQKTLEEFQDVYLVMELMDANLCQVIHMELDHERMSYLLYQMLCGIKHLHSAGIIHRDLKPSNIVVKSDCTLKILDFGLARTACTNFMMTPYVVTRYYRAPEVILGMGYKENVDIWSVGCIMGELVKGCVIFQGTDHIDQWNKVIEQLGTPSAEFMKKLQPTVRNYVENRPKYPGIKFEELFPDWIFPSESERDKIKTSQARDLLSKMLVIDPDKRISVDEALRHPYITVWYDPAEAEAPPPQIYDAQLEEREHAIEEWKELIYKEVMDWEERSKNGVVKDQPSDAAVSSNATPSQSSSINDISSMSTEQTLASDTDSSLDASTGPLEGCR

For `CC(C)[C@H](CO)Nc1nc(Nc2cccc(Cl)c2)c2ncn(C(C)C)c2n1` [PURVALANOLA], the Activity in [1] came out at 96%; in assay [2], 95%; in assay [3], 95%; in assay [4] it was 89%; in assay [5], 81%; in [6], 82%. Besides, the Activity in [7] was found to be 98%; in assay [8] it was 95%; in assay [9], 91%; in assay [10], 91%.
As for `Cn1cc(C2=C(c3cn(CCCSC(=N)N)c4ccccc34)C(=O)NC2=O)c2ccccc21`, the Activity in assay [1] was 92%; in assay [2], 59%; in [3], 88%; in assay [4], 80%; in [5], 82%; in [6] (filed as antagonist), 39%. In addition, the Activity in [11] was found to be 87%; in assay [7], 92%; in [8], 84%; in [9], 97%; in [10], 90%.
Regarding `O=C(NCCCNc1nc(Nc2cccc(NC(=O)N3CCCC3)c2)ncc1I)c1cccs1`, the Activity is 70% in assay [1]; 46% in [2] (filed as antagonist); 66% in assay [3]; 3% in [4] (filed as antagonist); 92% in assay [5]; 48% in assay [6] (filed as antagonist). In addition, the Activity is 33% in assay [11] (filed as antagonist); 76% in assay [7]; 95% in assay [8]; 98% in [9]; 76% in [10].
`Cn1c2ccccc2c2c3c(c4c5ccccc5n(CCC#N)c4c21)CNC3=O`: the Activity in assay [1] was 68%; in [2] (filed as antagonist), 1%; in assay [3] (filed as antagonist) it was 44%; in assay [4] (filed as antagonist), 17%; in assay [5], 80%; in assay [6] (filed as antagonist) it was 44%. The Activity was 34% in [11] (filed as antagonist); 82% in assay [7]; 87% in [8]; 96% in assay [9]; 49% in [10] (filed as antagonist).
Turning to `CN(C)C[C@@H]1CCn2cc(c3ccccc32)C2=C(C(=O)NC2=O)c2cn(c3ccccc23)CCO1`, the Activity in [1] came to 99%; in assay [2] it was 71%; in [3], 84%; in [4], 65%; in [5], 85%; in assay [6], 66%. The Activity in assay [11] (filed as antagonist) was 42%; in assay [8], 91%; in [9], 93%; in assay [10], 85%.
As to `CC(C)CCN1c2nc(Nc3cc(F)c(O)c(F)c3)ncc2N(C)C(=O)C1C` (stereo not given), the Activity was 115% in assay [1]; 73% in assay [2]; 115% in assay [3]; 22% in [4] (filed as antagonist); 5% in [5] (filed as antagonist); 112% in assay [6]. The Activity in [11] is 98%; in assay [7], 105%; in [8], 98%; in assay [9], 115%; in assay [10], 91%.
With `Cc1n[nH]c2ccc(-c3cncc(OC[C@@H](N)Cc4c[nH]c5ccccc45)c3)cc12`, the Activity in [1] came out at 78%; in assay [2], 99%; in [3], 59%; in assay [4], 80%; in [5], 80%; in assay [6] it was 53%. The Activity is 67% in assay [11]; 68% in assay [7]; 95% in assay [8]; 95% in assay [9]; 26% in [10] (filed as antagonist).
